Results taken from patent US20100137309A1, “FUNGICIDES PHENYL-PYRIMIDNYL-AMINO DERIVATIVES” (priority 2007, published 2010).

test system: not listed separately; test: Log p of the compounds of Table A; conditions: not given

| Compound | Log p |
| --- | --- |
| COCCN(C)C(=O)c1cc(-c2ccnc(Nc3cc(F)ccc3F)n2)ccn1 [Compound A230] | 2.52 |
| CCN(C)C(=O)c1cc(-c2ccnc(Nc3cc(Cl)ccc3F)n2)ccn1 [Compound A232] | 2.94 |
| CCCN(CC)C(=O)c1cc(-c2ccnc(Nc3cc(Cl)ccc3F)n2)ccn1 [Compound A234] | 3.69 |
| CCCN(CC1CC1)C(=O)c1cc(-c2ccnc(Nc3cc(Cl)ccc3F)n2)ccn1 [Compound A242] | 4.20 |
| CCCCN(C)C(=O)c1cc(-c2ccnc(Nc3cccc(C(C)C)c3)n2)ccn1 [Compound A262] | 4.04 |

test system: not listed separately; test: Log p determination of the compounds of Table A; conditions: not given

| Compound | logP |
| --- | --- |
| CCN(CC)C(=S)c1cc(-c2ccnc(Nc3cccc(Cl)c3)n2)ccn1 [Compound A391, 4-{2-[(3-chlorophenyl)amino]pyrimidin-4-yl}-N,N-diethylpyridine-2-carbothioamide] | 3.19 |

test system: Sphaerotheca fuliginea; test: In vivo test on Sphaerotheca fuliginea (cucurbits powdery mildew), DMF/emulsifier preparation (Example B); conditions: 500 ppm; young cucurbit plants sprayed preventively one day before inoculation; grading 7 days after contamination
Method: In Vivo Test on Sphaerotheca fuliginea (Cucurbits Powdery Mildew) To produce a suitable preparation of active compound, 1 part by weight of active compound is mixed with 49 parts by weight of solvent (N,N-dimethylformamide) and 1 part by weight of emulsifier (alkylarylpolyglycolether), and the concentrate is diluted with water to the desired concentration. To test for preventive activity, young cucurbit plants are sprayed with the preparation of active compound at the stated rate of application. One day after this treatment, the plants are inoculated with an aqueous spore suspension of Sphaerotheca fuliginea. […] Grading is carried out 7 days after the contamination, in comparison with the control plants. […] A16.

| Compound | good protection |
| --- | --- |
| COCCOC(=O)c1cc(-c2ccnc(Nc3cccc(OC)c3)n2)ccn1 [Compound A16] | at least 70% |

test system: not listed separately; test: Log p of the compounds of Table A; conditions: not given; remark: another data set of the same source

| Compound | Log p |
| --- | --- |
| CC(C)N(C)C(=O)c1cc(-c2ccnc(Nc3ccc(N4CCCC4=O)cc3)n2)ccn1 [Compound A325] | 2.04 |

test system: not listed separately; test: Log p of the compounds of Table A; conditions: not given; remark: another data set of the same source

| Compound | logP |
| --- | --- |
| CN(C)C(=O)c1cc(-c2ccnc(Nc3cccc(Cl)c3)n2)ccn1 [Compound A76, 4-{2-[(3-chlorophenyl)amino]pyrimidin-4-yl}-N,N-dimethylpyridine-2-carboxamide] | 2.5 |
| CCN(CC)C(=O)c1cc(-c2ccnc(Nc3cccc(Cl)c3)n2)ccn1 [Compound A77, 4-{2-[(3-chlorophenyl)amino]pyrimidin-4-yl}-N,N-diethylpyridine-2-carboxamide] | 3.19 |
| CON=C(C)c1cc(-c2ccnc(Nc3cccc(Cl)c3)n2)ccn1 [Compound A93, N-(3-chlorophenyl)-4-{2-[-N-methoxyethanimidoyl]pyridin-4-yl}pyrimidin-2-amine] | 4.46 |
| CC(=NNCCC#N)c1cc(-c2ccnc(Nc3cccc(Cl)c3)n2)ccn1 [Compound A108, 3-{2-[1-(4-{2-[(3-chlorophenyl)amino]pyrimidin-4-yl}pyridin-2-yl)ethylidene]hydrazinyl}propanenitrile] | 2.44 |
| CC(=O)c1cc(-c2ccnc(Nc3cccc(Cl)c3)n2)ccn1 [Compound A110, 1-(4-{2-[(3-chlorophenyl)amino]pyrimidin-4-yl}pyridin-2-yl)ethanone] | 3.5 |

test system: not listed separately; test: Log p of the compounds of Table A; conditions: not given; remark: another data set of the same source

| Compound | logP |
| --- | --- |
| O=C(NCCCN1CCCCCC1=O)c1cc(-c2ccnc(Nc3cccc(Cl)c3)n2)ccn1 [Compound A1, 4-{2-[(3-chlorophenyl)amino]pyrimidin-4-yl}-N-[3-(2-oxoazepan-1-yl)propyl]pyridine-2-carboxamide] | 2.98 |
| CC(C)CCNC(=O)c1cc(-c2ccnc(Nc3cccc(Cl)c3)n2)ccn1 [Compound A19, 4-{2-[(3-chlorophenyl)amino]pyrimidin-4-yl}-N-(3-methylbutyl)pyridine-2-carboxamide] | 4.7 |

same assay, conditions: Table A

| Compound | Log p |
| --- | --- |
| CC(CN(C)C)NC(=O)c1cc(-c2ccnc(Nc3cccc(Cl)c3)n2)ccn1 (stereo not shown) [Compound A38] | 1.81 |
| COCCCNC(=O)c1cc(-c2ccnc(Nc3cccc(Cl)c3)n2)ccn1 [Compound A39] | 3.31 |
| O=C(NC1CCCC1)c1cc(-c2ccnc(Nc3cccc(Cl)c3)n2)ccn1 [Compound A40] | 4.48 |
| CCC(CC)NC(=O)c1cc(-c2ccnc(Nc3cccc(Cl)c3)n2)ccn1 [Compound A44] | 4.72 |
| CCC(COC)NC(=O)c1cc(-c2ccnc(Nc3cccc(Cl)c3)n2)ccn1 (stereo not shown) [Compound A45] | 4.02 |
| CCC(C)NC(=O)c1cc(-c2ccnc(Nc3cccc(Cl)c3)n2)ccn1 (stereo not shown) [Compound A46] | 4.3 |
| O=C(NC1CCC1)c1cc(-c2ccnc(Nc3cccc(Cl)c3)n2)ccn1 [Compound A47] | 4.1 |
| CCCNC(=O)c1cc(-c2ccnc(Nc3cccc(Cl)c3)n2)ccn1 [Compound A56] | 3.8 |
| CC(C)NC(=O)c1cc(-c2ccnc(Nc3cccc(Cl)c3)n2)ccn1 [Compound A57] | 3.83 |
| CCCCNC(=O)c1cc(-c2ccnc(Nc3cccc(Cl)c3)n2)ccn1 [Compound A58] | 4.31 |
| CNC(=O)c1cc(-c2ccnc(Nc3cccc(Cl)c3)n2)ccn1 [Compound A59] | 2.94 |
| O=C(NC1CCS(=O)(=O)C1)c1cc(-c2ccnc(Nc3cccc(Cl)c3)n2)ccn1 (stereo not shown) [Compound A60] | 2.8 |
| CCOC1CCC(NC(=O)c2cc(-c3ccnc(Nc4cccc(Cl)c4)n3)ccn2)CC1 (stereo not shown) [Compound A61] | 4.54 |
